Test results: ChEMBL document CHEMBL4610038, “The synthesis of trifluoromethylated N-nitroaryl-2-amino-1,3-dichloropropane derivatives and their evaluation as potential anti-cancer agents” (Bioorg Med Chem Lett, 2020)

How the values were obtained:
SW1990 [1] = assay: Cytotoxicity against human SW1990 cells assessed as reduction in cell viability; assay type: functional, cell-based
HCT-116 [2] = assay: Cytotoxicity against human HCT116 cells assessed as reduction in cell viability; assay type: functional, cell-based
HCT-116 [3] = assay: Cytotoxicity against human HCT116 cells assessed as cell viability at 100 uM relative to control; assay type: functional; conditions: read-out: Activity
HT-29 [4] = assay: Cytotoxicity against human HT-29 cells assessed as reduction in cell viability; assay type: functional, cell-based
[5] = Cytotoxicity against human MRC5 cells assessed as cell viability at 100 uM relative to control; assay type: cell-based; conditions: read-out: Activity
T47D [6] = assay: Cytotoxicity against human T47D cells assessed as cell viability at 100 uM relative to control; assay type: functional; conditions: read-out: Activity
HT-29 [7] = assay: Cytotoxicity against human HT-29 cells assessed as cell viability at 100 uM relative to control; assay type: functional; conditions: read-out: Activity
ASPC1 [8] = assay: Cytotoxicity against human AsPC1 cells assessed as reduction in cell viability; assay type: functional, cell-based
SK-BR-3 [9] = assay: Cytotoxicity against human SKBR3 cells assessed as reduction in cell viability; assay type: functional, cell-based
MDA-MB-231 [10] = assay: Cytotoxicity against human MDA-MB-231 cells assessed as reduction in cell viability; assay type: functional, cell-based
MCF-10A = assay: Cytotoxicity against human MCF10A cells assessed as reduction in cell viability; assay type: cell-based
CNE [11] = assay: Cytotoxicity against human CNE1 cells assessed as cell viability at 100 uM relative to control; assay type: functional; conditions: read-out: Activity
SH-SY5Y [12] = assay: Cytotoxicity against human SH-SY5Y cells assessed as reduction in cell viability; assay type: functional, cell-based
SK-BR-3 [13] = assay: Cytotoxicity against human SKBR3 cells assessed as cell viability at 100 uM relative to control; assay type: functional; conditions: read-out: Activity
NCI-H1299 [14] = assay: Cytotoxicity against human H1299 cells assessed as reduction in cell viability; assay type: functional, cell-based
MDA-MB-468 [15] = assay: Cytotoxicity against human MDA-MB-468 cells assessed as reduction in cell viability; assay type: functional, cell-based
MCF7 [16] = assay: Cytotoxicity against human MCF7 cells assessed as reduction in cell viability; assay type: functional, cell-based
MDA-MB-468 [17] = assay: Cytotoxicity against human MDA-MB-468 cells assessed as cell viability at 100 uM relative to control; assay type: functional; conditions: read-out: Activity
BXPC-3 [18] = assay: Cytotoxicity against human BxPC3 cells assessed as cell viability at 100 uM relative to control; assay type: functional; conditions: read-out: Activity
BXPC-3 [19] = assay: Cytotoxicity against human BxPC3 cells assessed as reduction in cell viability; assay type: functional, cell-based
SUNE1 [20] = assay: Cytotoxicity against human SUNE1 cells assessed as reduction in cell viability; assay type: functional, cell-based
T47D [21] = assay: Cytotoxicity against human T47D cells assessed as reduction in cell viability; assay type: functional, cell-based
SH-SY5Y [22] = assay: Cytotoxicity against human SH-SY5Y cells assessed as cell viability at 100 uM relative to control; assay type: functional; conditions: read-out: Activity
Caco-2 [23] = assay: Cytotoxicity against human Caco2 cells assessed as reduction in cell viability; assay type: functional, cell-based
MDA-MB-231 [24] = assay: Cytotoxicity against human MDA-MB-231 cells assessed as cell viability at 100 uM relative to control; assay type: functional; conditions: read-out: Activity
[25] = Cytotoxicity against human HK1 cells assessed as cell viability at 100 uM relative to control; assay type: functional; conditions: HK-1, read-out: Activity
MCF7 [26] = assay: Cytotoxicity against human MCF7 cells assessed as cell viability at 100 uM relative to control; assay type: functional; conditions: read-out: Activity
[27] = Cytotoxicity against human MCF10A cells assessed as cell viability at 100 uM relative to control; assay type: cell-based, MCF-10A; conditions: read-out: Activity
ASPC1 [28] = assay: Cytotoxicity against human AsPC1 cells assessed as cell viability at 100 uM relative to control; assay type: functional; conditions: read-out: Activity
MRC5 = assay: Cytotoxicity against human MRC5 cells assessed as reduction in cell viability; assay type: cell-based
SW48 [29] = assay: Cytotoxicity against human SW48 cells assessed as cell viability at 100 uM relative to control; assay type: functional; conditions: read-out: Activity
CNE [30] = assay: Cytotoxicity against human CNE1 cells assessed as reduction in cell viability; assay type: functional, cell-based
SW48 [31] = assay: Cytotoxicity against human SW48 cells assessed as reduction in cell viability; assay type: functional, cell-based
SUNE1 [32] = assay: Cytotoxicity against human SUNE1 cells assessed as cell viability at 100 uM relative to control; assay type: functional; conditions: read-out: Activity
Caco-2 [33] = assay: Cytotoxicity against human Caco2 cells assessed as cell viability at 100 uM relative to control; assay type: functional; conditions: read-out: Activity
A549 [34] = assay: Cytotoxicity against human A549 cells assessed as reduction in cell viability; assay type: functional, cell-based
SW1990 [35] = assay: Cytotoxicity against human SW1990 cells assessed as cell viability at 100 uM relative to control; assay type: functional; conditions: read-out: Activity
A549 [36] = assay: Cytotoxicity against human A549 cells assessed as cell viability at 100 uM relative to control; assay type: functional; conditions: read-out: Activity
NCI-H1299 [37] = assay: Cytotoxicity against human H1299 cells assessed as cell viability at 100 uM relative to control; assay type: functional; conditions: read-out: Activity
[38] = Cytotoxicity against human HK1 cells assessed as reduction in cell viability; assay type: functional, cell-based; conditions: HK-1

Compound	IC50 (SW1990 [1])	IC50 (HCT-116 [2])	viability at 100 µM (HCT-116 [3])	IC50 (HT-29 [4])	viability at 100 µM [5]	viability at 100 µM (T47D [6])	viability at 100 µM (HT-29 [7])	IC50 (ASPC1 [8])	IC50 (SK-BR-3 [9])	IC50 (MDA-MB-231 [10])	IC50 (MCF-10A)	viability at 100 µM (CNE [11])	IC50 (SH-SY5Y [12])	viability at 100 µM (SK-BR-3 [13])	IC50 (NCI-H1299 [14])	IC50 (MDA-MB-468 [15])	IC50 (MCF7 [16])	viability at 100 µM (MDA-MB-468 [17])	viability at 100 µM (BXPC-3 [18])	IC50 (BXPC-3 [19])	also measured
O=[N+]([O-])c1ccc(NC(CCl)CCl)c([N+](=O)[O-])c1	> 100 µM	> 100 µM	73.1%	> 100 µM	24.3%	58.7%	89.1%	> 100 µM	> 100 µM	> 100 µM	> 100 µM	70.5%	> 100 µM	71.6%	> 100 µM	> 100 µM	44.3 µM	61.3%	103%	> 100 µM	IC50 (SUNE1 [20]): > 100 µM; IC50 (T47D [21]): 85.3 µM; viability at 100 µM (SH-SY5Y [22]): 63.6%; IC50 (Caco-2 [23]): > 100 µM; viability at 100 µM (MDA-MB-231 [24]): 83.4%; viability at 100 µM [25]: 88.9%; viability at 100 µM (MCF7 [26]): 25.1%; viability at 100 µM [27]: 78.8%; viability at 100 µM (ASPC1 [28]): 106%; IC50 (MRC5): 54.1 µM; viability at 100 µM (SW48 [29]): 55.2%; IC50 (CNE [30]): > 100 µM; IC50 (SW48 [31]): > 100 µM; viability at 100 µM (SUNE1 [32]): 68.6%; viability at 100 µM (Caco-2 [33]): 105%; IC50 (A549 [34]): > 100 µM; viability at 100 µM (SW1990 [35]): 69.8%; viability at 100 µM (A549 [36]): 59.4%; viability at 100 µM (NCI-H1299 [37]): 96.3%; IC50 [38]: > 100 µM
O=[N+]([O-])c1ccccc1NC(CCl)CCl	> 100 µM	> 100 µM	64.9%	> 100 µM	54.8%	69.8%	65.3%	> 100 µM	> 100 µM	> 100 µM	> 100 µM	72.5%	> 100 µM	79.9%	> 100 µM	> 100 µM	50.9 µM	63.6%	105%	> 100 µM	IC50 (SUNE1 [20]): > 100 µM; IC50 (T47D [21]): > 100 µM; viability at 100 µM (SH-SY5Y [22]): 60.8%; IC50 (Caco-2 [23]): > 100 µM; viability at 100 µM (MDA-MB-231 [24]): 85.1%; viability at 100 µM [25]: 101%; viability at 100 µM (MCF7 [26]): 37.7%; viability at 100 µM [27]: 88.7%; viability at 100 µM (ASPC1 [28]): 75.2%; IC50 (MRC5): > 100 µM; viability at 100 µM (SW48 [29]): 62.6%; IC50 (CNE [30]): > 100 µM; IC50 (SW48 [31]): > 100 µM; viability at 100 µM (SUNE1 [32]): 80.5%; viability at 100 µM (Caco-2 [33]): 104%; IC50 (A549 [34]): > 100 µM; viability at 100 µM (SW1990 [35]): 64.4%; viability at 100 µM (A549 [36]): 82.9%; viability at 100 µM (NCI-H1299 [37]): 109%; IC50 [38]: > 100 µM
O=[N+]([O-])c1ccc(NC(CCl)CCl)c(C(F)(F)F)c1	33.3 µM	33.1 µM	24.5%	92.1 µM	22.2%	24.3%	45.3%	85.1 µM	> 100 µM	42.4 µM	81 µM	12.4%	33.7 µM	55.6%	49.1 µM	52.1 µM	12.1 µM	20.4%	23.2%	52.1 µM	IC50 (SUNE1 [20]): 55.1 µM; IC50 (T47D [21]): 34.7 µM; viability at 100 µM (SH-SY5Y [22]): 21.6%; IC50 (Caco-2 [23]): 10.1 µM; viability at 100 µM (MDA-MB-231 [24]): 31.8%; viability at 100 µM [25]: 61.4%; viability at 100 µM (MCF7 [26]): 10.5%; viability at 100 µM [27]: 47.5%; viability at 100 µM (ASPC1 [28]): 40.2%; IC50 (MRC5): 31 µM; viability at 100 µM (SW48 [29]): 26.5%; IC50 (CNE [30]): 15.3 µM; IC50 (SW48 [31]): 33.4 µM; viability at 100 µM (SUNE1 [32]): 38.6%; viability at 100 µM (Caco-2 [33]): 9.5%; IC50 (A549 [34]): 57.7 µM; viability at 100 µM (SW1990 [35]): 28.6%; viability at 100 µM (A549 [36]): 37.1%; viability at 100 µM (NCI-H1299 [37]): 38.1%; IC50 [38]: > 100 µM
